BindingDB's records for doi:10.1021/jm00403a001 (Smith Kline & French Laboratories, 1988)

Target: Vasopressin V2 receptor (Canis familiaris)
Assay: In vitro antagonist activity was measured by inhibition of vasopressin-stimulated adenylate cyclase in renal medullary preparation in dog

Ki: 1 mM
SMILES: CCOc1ccc(C[C@H]2NC(=O)CC3(CCCCC3)CCC[C@@H](C(=O)N3CCC[C@H]3C(=O)N[C@@H](CCCN=C(N)N)C(N)=O)NC(=O)[C@H](CC(N)=O)NC(=O)[C@H](C(C)C)NC(=O)[C@H](Cc3ccccc3)NC2=O)cc1 [1-[13-Benzyl-19-carbamoylmethyl-10-(4-ethoxy-benzyl)-16-isopropyl-8,11,14,17,20-pentaoxo-9,12,15,18,21-pentaaza-spiro[5.19]pentacosane-22-carbonyl]-pyrrolidine-2-carboxylic acid (1-carbamoyl-4-guanidino-butyl)-amide]
